Legend:
[1] = test system: Methicillin Resistant Staphylococcus aureus strain USA 200; assay: Minimum inhibitory concentration (MIC), CLSI broth micro-dilution, S. aureus; type: cell-based; conditions: Staphylococcus aureus, MRSA / USA200; Table 6; MRSA USA 200; cation adjusted Mueller Hinton Broth + 0.002% Tween-80; 35° C., 22 hours
How it was run: (§1)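 Colonies grown 20 h at 35° C on Trypticase Soy agar (MRSA) or Luria agar (E. coli) were suspended in cation-adjusted Mueller Hinton broth with 0.002% Tween-80. Suspensions were added at OD600 0.0005 to 10-point twofold compound dilutions, then incubated 22 h at 35° C.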

[2] = test system: Escherichia coli ATCC 25922; assay: Minimum inhibitory concentration (MIC), CLSI broth micro-dilution, E. coli; type: cell-based; conditions: Escherichia coli, ATCC25922, 22 h, Table 6, cation adjusted Mueller Hinton Broth + 0.002% Tween-80, 35° C.
How it was run: as §1

MIC [1] [µM]	MIC [2] [µM]	SMILES
0.021	8.2	Cc1nc2cc(-c3ccc(C(C)(C)C)cc3)ccn2c1C(=O)N[C@@H](CCN)C(=O)N(C)[C@@H]1C(=O)N[C@@H](C)C(=O)N[C@H](C(=O)NCC#N)Cc2ccc(OCCN)c(c2)-c2cc1ccc2OCCN (racemic) [Compound 393, rac-(8S,11S,14S)-3,18-bis(2-aminoethoxy)-N-(cyanomethyl)-11-methyl-14-[methyl-[rac-(2S)-4-amino-2-[[7-(4-tert-butylphenyl)-2-methyl-imidazo[1,2-a]pyridine-3-carbonyl]amino]butanoyl]amino]-10,13-dioxo-9,12-diazatricyclo[13.3.1.12,6]icosa-1(18),2(20),3,5,15(19),16-hexaene-8-carboxamide]
0.013	0.27	CCCCCCc1ccc2nc(C)c(C(=O)N[C@@H](CCN)C(=O)N(C)[C@@H]3C(=O)N[C@@H](C)C(=O)N[C@H](C(=O)NCC#N)Cc4ccc(OCCN)c(c4)-c4cc3ccc4OCCN)cc2c1 (racemic) [Compound 395, rac-(8S,11S,14S)-3,18-bis(2-aminoethoxy)-N-(cyanomethyl)-11-methyl-14-[methyl-[rac-(2S)-4-amino-2-[(6-hexyl-2-methyl-quinoline-3-carbonyl)amino]butanoyl]amino]-10,13-dioxo-9,12-diazatricyclo[13.3.1.12,6]icosa-1(18),2(20),3,5,15(19),16-hexaene-8-carboxamide]
0.016	0.5	CCCCCCOc1ccc2nc(C)c(C(=O)N[C@@H](CCN)C(=O)N(C)[C@@H]3C(=O)N[C@@H](C)C(=O)N[C@H](C(=O)NCC#N)Cc4ccc(OCCN)c(c4)-c4cc3ccc4OCCN)cc2c1 (racemic) [Compound 396, rac-(8S,11S,14S)-3,18-bis(2-aminoethoxy)-N-(cyanomethyl)-11-methyl-14-[methyl-[rac-(2S)-4-amino-2-[(6-hexoxy-2-methyl-quinoline-3-carbonyl)amino]butanoyl]amino]-10,13-dioxo-9,12-diazatricyclo[13.3.1.12,6]icosa-1(18),2(20),3,5,15(19),16-hexaene-8-carboxamide]
0.023	0.38	Cc1nc2ccc(Oc3ccc(C(C)(C)C)cc3)cc2cc1C(=O)N[C@@H](CCN)C(=O)N(C)[C@@H]1C(=O)N[C@@H](C)C(=O)N[C@H](C(=O)NCC#N)Cc2ccc(OCCN)c(c2)-c2cc1ccc2OCCN (racemic) [Compound 397, rac-(8S,11S,14S)-3,18-bis(2-aminoethoxy)-N-(cyanomethyl)-11-methyl-14-[methyl-[rac-(2S)-4-amino-2-[[6-(4-tert-butylphenoxy)-2-methyl-quinoline-3-carbonyl]amino]butanoyl]amino]-10,13-dioxo-9,12-diazatricyclo[13.3.1.12,6]icosa-1(18),2(20),3,5,15(19),16-hexaene-8-carboxamide]
0.016	0.25	Cc1nc(-c2ccc(C(C)(C)C)cc2)c(Br)cc1C(=O)N[C@@H](CCN)C(=O)N(C)[C@@H]1C(=O)N[C@@H](C)C(=O)N[C@H](C(=O)NCC#N)Cc2ccc(OCCN)c(c2)-c2cc1ccc2OCCN (racemic) [Compound 401, rac-(8S,11S,14S)-3,18-bis(2-aminoethoxy)-N-(cyanomethyl)-11-methyl-14-[methyl-[rac-(2S)-4-amino-2-[[5-bromo-6-(4-tert-butylphenyl)-2-methyl-pyridine-3-carbonyl]amino]butanoyl]amino]-10,13-dioxo-9,12-diazatricyclo[13.3.1.12,6]icosa-1(18),2(20),3,5,15(19),16-hexaene-8-carboxamide]
0.031	0.38	Cc1cc(C(=O)N[C@@H](CCN)C(=O)N(C)[C@@H]2C(=O)N[C@@H](C)C(=O)N[C@H](C(=O)NCC#N)Cc3ccc(OCCN)c(c3)-c3cc2ccc3OCCN)c(C)nc1-c1ccc(C(C)(C)C)cc1 (racemic) [Compound 402, rac-(8S,11S,14S)-3,18-bis(2-aminoethoxy)-N-(cyanomethyl)-11-methyl-14-[methyl-[rac-(2S)-4-amino-2-[[6-(4-tert-butylphenyl)-2,5-dimethyl-pyridine-3-carbonyl]amino]butanoyl]amino]-10,13-dioxo-9,12-diazatricyclo[13.3.1.12,6]icosa-1(18),2(20),3,5,15(19),16-hexaene-8-carboxamide]
0.016	0.5	COc1cc(C(=O)N[C@@H](CCN)C(=O)N(C)[C@@H]2C(=O)N[C@@H](C)C(=O)N[C@H](C(=O)NCC#N)Cc3ccc(OCCN)c(c3)-c3cc2ccc3OCCN)c(C)nc1-c1ccc(C(C)(C)C)cc1 (racemic) [Compound 403, rac-(8S,11S,14S)-3,18-bis(2-aminoethoxy)-N-(cyanomethyl)-11-methyl-14-[methyl-[rac-(2S)-4-amino-2-[[6-(4-tert-butylphenyl)-5-methoxy-2-methyl-pyridine-3-carbonyl]amino]butanoyl]amino]-10,13-dioxo-9,12-diazatricyclo[13.3.1.12,6]icosa-1(18),2(20),3,5,15(19),16-hexaene-8-carboxamide]

The next lines start with the molecule.

SMILES	MIC [1] [µM]	MIC [2] [µM]
C[C@@H]1NC(=O)[C@@H](N(C)C(=O)[C@H](CCN)NC(=O)c2cnc(-c3ccc(C(C)(C)C)cc3)c(=O)n2C)c2ccc(OCCN)c(c2)-c2cc(ccc2OCCN)C[C@@H](C(=O)NCC#N)NC1=O (racemic) [Compound 386, rac-(8S,11S,14S)-3,18-bis(2-aminoethoxy)-N-(cyanomethyl)-11-methyl-14-[methyl-[rac-(2S)-4-amino-2-[[5-(4-tert-butylphenyl)-1-methyl-6-oxo-pyrazine-2-carbonyl]amino]butanoyl]amino]-10,13-dioxo-9,12-diazatricyclo[13.3.1.12,6]icosa-1(18),2(20),3,5,15(19),16-hexaene-8-carboxamide]	0.75	8
CCCCCCc1ncc(-c2ccc(C(=O)N[C@@H](CCN)C(=O)N(C)[C@@H]3C(=O)N[C@@H](C)C(=O)N[C@H](C(=O)NCC#N)Cc4ccc(OCCN)c(c4)-c4cc3ccc4OCCN)c(C(F)F)c2)cn1 (racemic) [Compound 388, rac-(8S,11S,14S)-3,18-bis(2-aminoethoxy)-N-(cyanomethyl)-11-methyl-14-[methyl-[rac-(2S)-4-amino-2-[[2-(difluoromethyl)-4-(2-hexylpyrimidin-5-yl)benzoyl]amino]butanoyl]amino]-10,13-dioxo-9,12-diazatricyclo[13.3.1.12,6]icosa-1(18),2(20),3,5,15(19),16-hexaene-8-carboxamide]	0.031	1
C[C@@H]1NC(=O)[C@@H](N(C)C(=O)[C@H](CCN)NC(=O)C2CCN(c3ccc(C(C)(C)C)cc3)CC2)c2ccc(OCCN)c(c2)-c2cc(ccc2OCCN)C[C@@H](C(=O)NCC#N)NC1=O (racemic) [Compound 389, rac-(8S,11S,14S)-3,18-bis(2-aminoethoxy)-N-(cyanomethyl)-11-methyl-14-[methyl-[rac-(2S)-4-amino-2-[[1-(4-tert-butylphenyl)piperidine-4-carbonyl]amino]butanoyl]amino]-10,13-dioxo-9,12-diazatricyclo[13.3.1.12,6]icosa-1(18),2(20),3,5,15(19),16-hexaene-8-carboxamide]	0.13	4
CCCCCCc1ccc2cc(C(=O)N[C@@H](CCN)C(=O)N(C)[C@@H]3C(=O)N[C@@H](C)C(=O)N[C@H](C(=O)NCC#N)Cc4ccc(OCCN)c(c4)-c4cc3ccc4OCCN)c(C)nc2c1 (racemic) [Compound 394, rac-(8S,11S,14S)-3,18-bis(2-aminoethoxy)-N-(cyanomethyl)-11-methyl-14-[methyl-[rac-(2S)-4-amino-2-[(7-hexyl-2-methyl-quinoline-3-carbonyl)amino]butanoyl]amino]-10,13-dioxo-9,12-diazatricyclo[13.3.1.12,6]icosa-1(18),2(20),3,5,15(19),16-hexaene-8-carboxamide]	0.0083	0.2
CCCCCCc1cnc2cc(C(=O)N[C@@H](CCN)C(=O)N(C)[C@@H]3C(=O)N[C@@H](C)C(=O)N[C@H](C(=O)NCC#N)Cc4ccc(OCCN)c(c4)-c4cc3ccc4OCCN)c(C)nc2c1 (racemic) [Compound 398, rac-(8S,11S,14S)-3,18-bis(2-aminoethoxy)-N-(cyanomethyl)-11-methyl-14-[methyl-[rac-(2S)-4-amino-2-[(7-hexyl-2-methyl-1,5-naphthyridine-3-carbonyl)amino]butanoyl]amino]-10,13-dioxo-9,12-diazatricyclo[13.3.1.12,6]icosa-1(18),2(20),3,5,15(19),16-hexaene-8-carboxamide]	0.025	0.27
CCCCCCc1ccc2nc(C)c(C(=O)N[C@@H](CCN)C(=O)N(C)[C@@H]3C(=O)N[C@@H](C)C(=O)N[C@H](C(=O)NCC#N)Cc4ccc(OCCN)c(c4)-c4cc3ccc4OCCN)c(C)c2c1 (racemic) [Compound 399, rac-(8S,11S,14S)-3,18-bis(2-aminoethoxy)-N-(cyanomethyl)-11-methyl-14-[methyl-[rac-(2S)-4-amino-2-[(6-hexyl-2,4-dimethyl-quinoline-3-carbonyl)amino]butanoyl]amino]-10,13-dioxo-9,12-diazatricyclo[13.3.1.12,6]icosa-1(18),2(20),3,5,15(19),16-hexaene-8-carboxamide]	0.0078	0.5
CCCCCCc1ccc2cc(C)c(C(=O)N[C@@H](CCN)C(=O)N(C)[C@@H]3C(=O)N[C@@H](C)C(=O)N[C@H](C(=O)NCC#N)Cc4ccc(OCCN)c(c4)-c4cc3ccc4OCCN)cc2c1 (racemic) [Compound 400, rac-(8S,11S,14S)-3,18-bis(2-aminoethoxy)-N-(cyanomethyl)-11-methyl-14-[methyl-[rac-(2S)-4-amino-2-[(7-hexyl-3-methyl-naphthalene-2-carbonyl)amino]butanoyl]amino]-10,13-dioxo-9,12-diazatricyclo[13.3.1.12,6]icosa-1(18),2(20),3,5,15(19),16-hexaene-8-carboxamide]	0.047	0.25

Reference: patent publication US20260274892A1, “MACROCYCLIC BROAD SPECTRUM ANTIBIOTICS” (RQx Pharmaceuticals, Inc., priority 2017, published 2026)
